Reference: US5455241A, “Polycyclic compounds and processes for the preparation thereof” (Ciba-Geigy Corporation, priority 1993, dated 1995)
Like-named read-outs stand apart in the source and are kept apart here.

Tests used:
[1] = Stability in solution; type: physicochemical
[2] = system: human bladder tumours T24; experiment: Anti-tumour activity in vivo, s.c. transplanted human bladder tumours T24 in hairless mice; parameters: species or system human tumour in female Balb/c hairless mice; details: 15 days
Experimental: Female Balb/c hairless mice with s.c. transplanted human bladder tumours T24 are used to determine the anti-tumour activity. With the animals under peroral forene narcosis, approximately 25 mg of a solid tumour are placed under the skin on "the animals' left flank on day 0 and the small incised wound is closed by means of suture clips. On day 6 after the transplantation, the mice are divided at random into groups of 6 animals and treatment commences. The treatment is carried out for 15 days with peroral or intraperitoneal administration once daily of a compound of formula I in dimethyl sulfoxide/Tween 80/sodium chloride solution in the various doses. The tumours are measured twice a week with a slide gauge and the volume of the tumours is calculated. In this test, the peroral or intraperitoneal administration of 3 mg/kg daily of a compound of formula I brings about a reduction in the average tumour volume to from 10 to 15% of the tumour volume in the untreated control animals.
Example 10: Anti-tumour activity of N-[0-(tetrahydropyran-4-yl)-D-lactoyl]-staurosporin in vivo:
The substance is formulated as follows: 12.5 mg of active ingredient are dissolved in 0.25 ml of dimethyl sulfoxide and mixed with 50 μof Tween 80.4.7 ml of a 0.9% sodium chloride solution are then added and the whole is mixed thoroughly.
Female Balb/c hairless mice with s.c. transplanted human bladder tumours T24 are used to determine the anti-tumour activity. With the animals under peroral forene narcosis, approximately 25 mg of a solid tumour are placed under the skin on the animals' left flank on day 0 and the small incised wound is closed by means of suture clips. On day 6 after the transplantation, the mice are divided at random into groups of 6 animals and treatment commences. The treatment is carried out for 15 days with the administration once daily of the various doses. The tumours are measured twice a week with a slide gauge and the volume of the tumours is calculated. The results are compiled in the following Table in which "dose" is the daily dose, "admin." is the mode of administration, "exper." is experiment and "T/C %" is the percentage quotient of the values in the treated mice and the untreated control mice.

[3] = Determination of the maximum tolerated dose (MTD); details: mouse, in vivo, 3 female Balb/c mice per dose, within 7 days
Experimental: Example 11: Determination of the maximum tolerated dose (MTD) of N-[0-(tetrahydro-pyran-4-yl) -D-lactoyl]- staurosporin
3 female Balb/c mice per dose are treated i.p. or p.o. with N-[O]-(tetrahydropyran-4-yl)-D-lactoyl]-staurosporin in dimethyl sulfoxide […]/sodium chloride solution (see Example 10 for formulation). The dose is increased until animals succumb within 7 days.

| SMILES | stability in solution [1] | average tumour volume [T/C %] ([2]; 0.19 mg/kg daily i.p., Exper. 2) | average tumour volume [T/C %] ([2]; 0.38 mg/kg daily i.p., Exper. 2) | average tumour volume [T/C %] ([2]; 0.75 mg/kg daily i.p., Exper. 2) | average tumour volume [T/C %] ([2]; 0.78 mg/kg daily p.o., Exper. 2) | average tumour volume [T/C %] ([2]; 1.50 mg/kg daily i.p., Exper. 1) | average tumour volume [T/C %] ([2]; 1.50 mg/kg daily i.p., Exper. 2) | average tumour volume [T/C %] ([2]; 1.56 mg/kg daily p.o., Exper. 2) | average tumour volume [T/C %] ([2]; 3.00 mg/kg daily i.p., Exper. 1) | average tumour volume [T/C %] ([2]; 3.00 mg/kg daily i.p., Exper. 2) | average tumour volume [T/C %] ([2]; 3.13 mg/kg daily p.o., Exper. 1) | average tumour volume [T/C %] ([2]; 3.13 mg/kg daily p.o., Exper. 2) | average tumour volume [T/C %] ([2]; 6.25 mg/kg daily p.o., Exper. 1) | average tumour volume [T/C %] ([2]; 6.25 mg/kg daily p.o., Exper. 2) | MTD at 168 h ([3]; ip, read-out: MTD (i.p.)) | MTD at 168 h ([3]; po, read-out: MTD (p.o.)) |
| --- | --- | --- | --- | --- | --- | --- | --- | --- | --- | --- | --- | --- | --- | --- | --- | --- |
| CO[C@@H]1[C@H](N(C)C(=O)COC2CCOCC2)C[C@H]2O[C@]1(C)n1c3ccccc3c3c4c(c5c6ccccc6n2c5c31)C(=O)NC4O (stereo partly shown) [Example 7, N-[2-(tetrahydropyran-4-yl-oxy)-acetyl]-7-hydroxy-staurospo] | unstable in solution | – | – | – | – | – | – | – | – | – | – | – | – | – | – | – |
| CO[C@@H]1[C@H](N(C)C(=O)[C@@H](C)OC2CCOCC2)C[C@H]2O[C@]1(C)n1c3ccccc3c3c4c(c5c6ccccc6n2c5c31)C(=O)NC4 [N-[O-(tetrahydropyran-4-yl)-D-lactoyl]-staurosporin] | – | 74% | 62% | 32% | 58% | 14% | 19% | 31% | 9% | 11% | 17% | 14% | 15% | 12% | 31.2 mg/kg | 62.5 mg/kg |
